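Tested at 5 concentrations; 48 h exposure; 96-well plates; endpoints linearly interpolated, else capped at highest concentration. The concentration for 50% growth inhibition is given as GI50.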 The source made the active and inactive calls. Rule as the data show it: active = GI50 up to about 1.1 µM and inactive = higher.
Tests used:
Assay in all cases: NCI-60 cell line screen, 48 h
HCT-116 = test system: HCT-116
HCT-15 = test system: HCT-15
Hs-578T = test system: Hs-578T
IGROV-1 = test system: IGROV-1
K562 = test system: K562
MDA-MB-435 = test system: MDA-MB-435
NCI-H226 = test system: NCI-H226
NCI-H23 = test system: NCI-H23
NCI-H460 = test system: NCI-H460
NCI-H522 = test system: NCI-H522
RXF 393 = test system: RXF 393
SF-268 = test system: SF-268
SN12C = test system: SN12C
SNB-19 = test system: SNB-19
SR = test system: SR
U-251 = test system: U-251
UO-31 = test system: UO-31
HCC 2998 = test system: HCC 2998
PC-3 = test system: PC-3

Structure (SMILES) | GI50 (HCT-116) | GI50 (HCT-15) [µM] | GI50 (Hs-578T) | GI50 (IGROV-1) | GI50 (K562) | GI50 (MDA-MB-435) | GI50 (NCI-H226) | GI50 (NCI-H23) | GI50 (NCI-H460) | GI50 (NCI-H522) | GI50 (RXF 393) | GI50 (SF-268) | GI50 (SN12C) | GI50 (SNB-19) | GI50 (SR) | GI50 (U-251) | GI50 (UO-31) | GI50 (HCC 2998) | GI50 (PC-3)
COc1cccc(Cc2cc(=O)c3ccc(C)nc3[nH]2)c1 | > 100 µM (inactive) | > 100 | 60.1 µM (inactive) | > 100 µM (inactive) | 86.7 µM (inactive) | > 100 µM (inactive) | > 100 µM (inactive) | > 100 µM (inactive) | > 100 µM (inactive) | 13.2 µM (inactive) | > 100 µM (inactive) | > 100 µM (inactive) | > 100 µM (inactive) | > 100 µM (inactive) | 35.8 µM (inactive) | > 100 µM (inactive) | > 100 µM (inactive) | – | –
CC(C)(C)[Si](C)(C)OCCC1CC2(S(=O)(=O)C3=CC=C=C=C3)ON1CC2S(=O)(=O)c1ccccc1 (configuration not stated) | > 10 µM (inactive) | – | > 10 µM (inactive) | > 10 µM (inactive) | – | > 10 µM (inactive) | > 10 µM (inactive) | > 10 µM (inactive) | > 10 µM (inactive) | – | > 10 µM (inactive) | > 10 µM (inactive) | > 10 µM (inactive) | > 10 µM (inactive) | – | > 100 µM (inactive) | > 10 µM (inactive) | > 10 µM (inactive) | –
COc1cc(C(=O)O[C@H]2CCC3CCC2N3C)cc(OC)c1OC (some centres not stated) | > 100 µM (inactive) | > 100 | > 100 µM (inactive) | – | > 100 µM (inactive) | > 100 µM (inactive) | > 100 µM (inactive) | > 100 µM (inactive) | > 100 µM (inactive) | – | > 100 µM (inactive) | > 100 µM (inactive) | > 100 µM (inactive) | > 100 µM (inactive) | > 100 µM (inactive) | > 100 µM (inactive) | 43.2 µM (inactive) | > 100 µM (inactive) | –
O=C1C=C(N2CCN(CCOCCO)CC2)C(=O)c2c(O)ccc(O)c21 | 2.02 µM (inactive) | 1.64 | 20.1 µM (inactive) | 3.74 µM (inactive) | 3.17 µM (inactive) | 1.82 µM (inactive) | 16.9 µM (inactive) | 2.21 µM (inactive) | 2.92 µM (inactive) | 2.9 µM (inactive) | 13.2 µM (inactive) | 17.3 µM (inactive) | 4.22 µM (inactive) | 18.4 µM (inactive) | – | 4.02 µM (inactive) | 10.3 µM (inactive) | 2.7 µM (inactive) | 3.07 µM (inactive)
Cn1c(=O)oc2cc(C(O)CN3CCN(Cc4ccccn4)CC3)c(Cl)cc21 (configuration not stated) | > 100 µM (inactive) | > 100 | – | > 100 µM (inactive) | > 100 µM (inactive) | > 100 µM (inactive) | > 100 µM (inactive) | > 100 µM (inactive) | > 100 µM (inactive) | > 100 µM (inactive) | > 100 µM (inactive) | > 100 µM (inactive) | > 100 µM (inactive) | > 100 µM (inactive) | 23.3 µM (inactive) | > 100 µM (inactive) | > 100 µM (inactive) | > 100 µM (inactive) | > 100 µM (inactive)
O=c1[nH]c(=O)n(C2CC(O)C(COP(=O)(O)OC3CC(n4cc(F)c(=O)[nH]c4=O)OC3COP(=O)(O)OC3CC(n4cc(F)c(=O)[nH]c4=O)OC3COP(=O)(O)OC3CC(n4cc(F)c(=O)[nH]c4=O)OC3COP(=O)(O)OC3CC(n4cc(F)c(=O)[nH]c4=O)OC3COP(=O)(O)OC3CC(n4cc(F)c(=O)[nH]c4=O)OC3COP(=O)(O)OC3CC(n4cc(F)c(=O)[nH]c4=O)OC3COP(=O)(O)OC3CC(n4cc(F)c(=O)[nH]c4=O)OC3COP(=O)(O)OC3CC(n4cc(F)c(=O)[nH]c4=O)OC3COP(=O)(O)OC3CC(n4cc(F)c(=O)[nH]c4=O)OC3CO)O2)cc1F (configuration not stated) | 0.0109 µM (active) | 0.309 | – | 0.0435 µM (active) | 2.36 µM (inactive) | 0.422 µM (active) | 0.194 µM (active) | 0.0502 µM (active) | < 0.005 µM (active) | 0.015 µM (active) | 0.217 µM (active) | < 0.005 µM (active) | 0.00828 µM (active) | 0.169 µM (active) | < 0.005 µM (active) | 0.115 µM (active) | < 0.005 µM (active) | 0.0234 µM (active) | 0.0767 µM (active)
COc1cc2[nH]c(=O)c3cc(C)cc4c(Cl)nc(c1OC)c2c43 | 40.1 µM (inactive) | > 100 | – | 67.8 µM (inactive) | 67.8 µM (inactive) | 57.3 µM (inactive) | 45.7 µM (inactive) | 85.5 µM (inactive) | 23.4 µM (inactive) | 36.3 µM (inactive) | 21 µM (inactive) | 20.4 µM (inactive) | – | 42 µM (inactive) | – | 38.6 µM (inactive) | > 100 µM (inactive) | > 100 µM (inactive) | > 100 µM (inactive)
COC1=Nc2ccccc2S(=O)(=O)C=C1 | 1.74 µM (inactive) | 3.42 | 18.7 µM (inactive) | 13.7 µM (inactive) | – | 11.4 µM (inactive) | > 87.3 µM (inactive) | 6.35 µM (inactive) | 19 µM (inactive) | 1.21 µM (inactive) | 2.69 µM (inactive) | 20.8 µM (inactive) | 14.4 µM (inactive) | 24.7 µM (inactive) | – | 11.4 µM (inactive) | 5.46 µM (inactive) | 21.4 µM (inactive) | 15 µM (inactive)
Cc1ccc(I)cc1N=C=S | 29.8 µM (inactive) | 17.8 | 29.9 µM (inactive) | 28.8 µM (inactive) | 23 µM (inactive) | 23.1 µM (inactive) | 18.3 µM (inactive) | 19.9 µM (inactive) | 23.5 µM (inactive) | 17.2 µM (inactive) | 20.2 µM (inactive) | 27.6 µM (inactive) | 20.7 µM (inactive) | 23.5 µM (inactive) | – | 19.5 µM (inactive) | 17.3 µM (inactive) | – | 20.3 µM (inactive)
O=C1C=CC(=O)C(CNc2ccc(C(=O)OC34CC5CC(CC(C5)C3)C4)cc2)=C1Br | 12.7 µM (inactive) | 5.19 | 6.35 µM (inactive) | 3.73 µM (inactive) | 5.58 µM (inactive) | 14.7 µM (inactive) | 16.7 µM (inactive) | 7.35 µM (inactive) | 11.5 µM (inactive) | 0.435 µM (active) | 4.98 µM (inactive) | 12.2 µM (inactive) | 11.1 µM (inactive) | 15.6 µM (inactive) | – | 4 µM (inactive) | 6.75 µM (inactive) | 12.4 µM (inactive) | 4.76 µM (inactive)
CCOC(=O)N(c1ccccc1)c1cc(=O)n2ccccc2n1 | > 100 µM (inactive) | > 100 | – | > 100 µM (inactive) | > 100 µM (inactive) | > 100 µM (inactive) | > 100 µM (inactive) | > 100 µM (inactive) | > 100 µM (inactive) | – | 38.9 µM (inactive) | > 100 µM (inactive) | > 100 µM (inactive) | > 100 µM (inactive) | > 100 µM (inactive) | > 100 µM (inactive) | > 100 µM (inactive) | > 100 µM (inactive) | –
Clc1ccc(COC(Cn2ccnc2)c2ccc(Cl)cc2Cl)c(Cl)c1 (configuration not stated) [MICONAZOLE NITRATE] | 5.3 µM (inactive) | 10.2 | – | – | 3.75 µM (inactive) | 3.37 µM (inactive) | – | 8.15 µM (inactive) | 12.6 µM (inactive) | 8.2 µM (inactive) | – | 10.3 µM (inactive) | 7.96 µM (inactive) | 15.9 µM (inactive) | – | 11 µM (inactive) | 2.94 µM (inactive) | 12.8 µM (inactive) | 5.7 µM (inactive)
Cc1ccc2c(=O)c(-c3n[nH]c(=S)s3)c[nH]c2n1 | > 100 µM (inactive) | > 100 | > 100 µM (inactive) | > 100 µM (inactive) | > 100 µM (inactive) | > 100 µM (inactive) | > 100 µM (inactive) | > 100 µM (inactive) | > 100 µM (inactive) | 82.8 µM (inactive) | > 100 µM (inactive) | > 100 µM (inactive) | > 100 µM (inactive) | > 100 µM (inactive) | – | > 100 µM (inactive) | > 100 µM (inactive) | – | > 100 µM (inactive)
COc1cc(NC(C)CCCN)c2nccc(C)c2c1 (configuration not stated) | 15.8 µM (inactive) | 21.3 | 26.8 µM (inactive) | 16.5 µM (inactive) | – | 16.7 µM (inactive) | – | 38 µM (inactive) | 22.3 µM (inactive) | 17.5 µM (inactive) | – | 24.3 µM (inactive) | 31.4 µM (inactive) | 27 µM (inactive) | 19.7 µM (inactive) | 19.6 µM (inactive) | 15.6 µM (inactive) | 19.9 µM (inactive) | –
C1CSCCSCCCSC2CCCCC2SC1 (configuration not stated) | > 100 µM (inactive) | > 100 | – | > 100 µM (inactive) | 45 µM (inactive) | > 100 µM (inactive) | – | 80.5 µM (inactive) | > 100 µM (inactive) | > 100 µM (inactive) | – | > 100 µM (inactive) | > 100 µM (inactive) | > 100 µM (inactive) | 46.5 µM (inactive) | > 100 µM (inactive) | > 100 µM (inactive) | > 100 µM (inactive) | 68.2 µM (inactive)
COC(=O)C1=C(O)C(C(=O)OC)[C@]2(O)[C@H](C(=O)OC)[C@H]1C[C@@H](c1ccc([N+](=O)[O-])cc1)[C@H]2C(=O)OC (some centres not stated) | 14.7 µM (inactive) | 12.7 | – | 12.8 µM (inactive) | 10.2 µM (inactive) | 11 µM (inactive) | 24.9 µM (inactive) | 13.2 µM (inactive) | 26.4 µM (inactive) | 2.46 µM (inactive) | 14.7 µM (inactive) | 16.9 µM (inactive) | 18.1 µM (inactive) | 19 µM (inactive) | – | 11.5 µM (inactive) | – | – | 13.9 µM (inactive)

— ChEMBL document CHEMBL1201862, “PubChem BioAssay data set” (2004)
